Test results taken from ChEMBL document CHEMBL1914323, “Tricyclic aminopyrimidine histamine H4 receptor antagonists” (Bioorg Med Chem Lett, 2011).
Values after ≈ are worked out from the molar mass of the structure shown. Active and inactive are the calls of the source. The rule behind the calls is not given here.

Legend:
Histamine H4 receptor [1] = target: T1, Histamine H4 receptor (Homo sapiens, UniProt Q9H3N8); test: Displacement of [3H]histamine from recombinant human histamine H4 receptor
Histamine H4 receptor [2] = target: T1, Histamine H4 receptor; test: Antagonist activity at recombinant human histamine H4 receptor; assay type: functional; details: read-out: pA2 (converted)
[3] = Solubility of the compound at pH 7; assay type: physicochemical; details: buffer
[4] = Metabolic stability in rat liver microsomes after 15 mins; assay type: ADME, Microsome; details: read-out: Stability
[5] = Metabolic stability in human liver microsomes after 15 mins; assay type: ADME, Microsome; details: read-out: Stability
[6] = Metabolic stability in human liver microsomes assessed as half life; assay type: ADME, Microsome
[7] = Metabolic stability in rat liver microsomes assessed as half life; assay type: ADME, Microsome
[8] = target: T2, Voltage-gated inwardly rectifying potassium channel KCNH2 (Homo sapiens, UniProt Q12809); test: Inhibition of human ERG by binding assay
T2 sequence (Q12809 whole entry): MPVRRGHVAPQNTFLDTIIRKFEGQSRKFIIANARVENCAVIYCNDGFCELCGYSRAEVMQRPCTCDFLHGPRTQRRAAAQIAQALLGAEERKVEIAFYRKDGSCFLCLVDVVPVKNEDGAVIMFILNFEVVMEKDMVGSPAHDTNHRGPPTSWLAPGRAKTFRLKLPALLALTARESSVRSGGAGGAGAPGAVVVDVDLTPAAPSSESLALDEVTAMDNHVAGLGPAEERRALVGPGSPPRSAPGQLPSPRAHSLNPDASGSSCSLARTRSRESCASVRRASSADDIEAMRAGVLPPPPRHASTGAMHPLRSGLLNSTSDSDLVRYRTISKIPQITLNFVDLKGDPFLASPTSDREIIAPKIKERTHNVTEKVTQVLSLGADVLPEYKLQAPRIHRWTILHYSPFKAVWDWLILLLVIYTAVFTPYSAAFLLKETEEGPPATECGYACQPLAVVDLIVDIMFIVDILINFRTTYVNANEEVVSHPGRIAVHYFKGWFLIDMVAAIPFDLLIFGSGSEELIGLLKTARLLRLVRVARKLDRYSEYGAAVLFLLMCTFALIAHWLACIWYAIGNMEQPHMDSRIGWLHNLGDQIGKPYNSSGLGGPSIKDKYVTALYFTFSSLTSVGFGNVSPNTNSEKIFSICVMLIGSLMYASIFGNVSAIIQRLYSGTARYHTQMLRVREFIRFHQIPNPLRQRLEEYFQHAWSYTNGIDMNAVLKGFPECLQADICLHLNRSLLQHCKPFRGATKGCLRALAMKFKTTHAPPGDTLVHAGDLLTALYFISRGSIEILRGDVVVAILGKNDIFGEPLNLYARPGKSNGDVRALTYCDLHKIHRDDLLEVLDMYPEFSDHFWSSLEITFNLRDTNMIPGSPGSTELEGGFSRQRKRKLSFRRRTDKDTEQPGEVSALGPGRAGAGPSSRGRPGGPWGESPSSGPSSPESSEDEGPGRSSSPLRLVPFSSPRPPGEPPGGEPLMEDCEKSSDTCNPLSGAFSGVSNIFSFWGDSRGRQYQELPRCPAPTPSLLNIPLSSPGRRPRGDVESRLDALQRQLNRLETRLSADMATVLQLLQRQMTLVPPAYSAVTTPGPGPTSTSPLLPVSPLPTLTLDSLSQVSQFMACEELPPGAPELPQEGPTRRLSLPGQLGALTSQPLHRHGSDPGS

[9] = target: T2, Voltage-gated inwardly rectifying potassium channel KCNH2; test: Inhibition of human ERG by patch clamp technique
[10] = Solubility of the compound at pH 2; assay type: physicochemical; details: buffer
[11] = Metabolic stability in dog liver microsomes assessed as half life; assay type: ADME, Canis lupus familiaris, Microsome
[12] = Fraction unbound in human plasma; assay type: ADME, cell-free
[13] = Fraction unbound in mouse plasma; assay type: ADME, cell-free
[14] = Apparent permeability from apical to basolateral side of human Caco2 cells; assay type: ADME, cell-based; details: Caco-2
[15] = Apparent permeability from basolateral to apical side of human Caco2 cells; assay type: ADME, cell-based; details: Caco-2
[16] = Half life in rat at 2 mg/kg, iv; assay type: ADME, organism-based; set-up: dose 2 mg/kg, route intravenous; details: in vivo
[17] = Half life in dog at 2 mg/kg, iv; assay type: ADME, organism-based, Canis lupus familiaris; set-up: dose 2 mg/kg, route intravenous; details: in vivo
[18] = AUC in rat at 2 mg/kg, iv; assay type: ADME, organism-based; set-up: dose 2 mg/kg, route intravenous; details: plasma
[19] = AUC in dog at 2 mg/kg, iv; assay type: ADME, organism-based, Canis lupus familiaris; set-up: dose 2 mg/kg, route intravenous; details: plasma
[20] = Clearance in rat at 2 mg/kg, iv; assay type: ADME, organism-based; set-up: dose 2 mg/kg, route intravenous; details: in vivo
[21] = Clearance in dog at 2 mg/kg, iv; assay type: ADME, organism-based, Canis lupus familiaris; set-up: dose 2 mg/kg, route intravenous; details: in vivo
[22] = Volume of distribution at steady state in rat at 2 mg/kg, iv; assay type: ADME, organism-based; set-up: dose 2 mg/kg, route intravenous; details: in vivo, read-out: Vdss
[23] = Volume of distribution at steady state in dog at 2 mg/kg, iv; assay type: ADME, organism-based, Canis lupus familiaris; set-up: dose 2 mg/kg, route intravenous; details: in vivo, read-out: Vdss
[24] = Half life in rat at 10 mg/kg, po; assay type: ADME, organism-based; set-up: dose 10 mg/kg, route oral; details: in vivo
[25] = Half life in dog at 10 mg/kg, po; assay type: ADME, organism-based, Canis lupus familiaris; set-up: dose 10 mg/kg, route oral; details: in vivo
[26] = Cmax in rat at 10 mg/kg, po; assay type: ADME, organism-based; set-up: dose 10 mg/kg, route oral; details: in vivo
[27] = Cmax in dog at 10 mg/kg, po; assay type: ADME, organism-based, Canis lupus familiaris; set-up: dose 10 mg/kg, route oral; details: in vivo
[28] = Oral bioavailability in rat at 10 mg/kg; assay type: ADME, organism-based; details: in vivo
[29] = Oral bioavailability in dog at 10 mg/kg; assay type: ADME, organism-based, Canis lupus familiaris; details: in vivo
Mus musculus = test: Antiinflammatory activity in BALB/c mouse asthma model assessed as inhibition of ovalbumin-induced eosinophil accumulation in lung lavage at 10 mg/kg, po BID 20 mins prior to each ovalbumin challenge for 4 times measured after 24 hrs by coulter counter assay; assay type: functional, organism-based; set-up: dose 10 mg/kg

T1 sequence (Q9H3N8 whole entry): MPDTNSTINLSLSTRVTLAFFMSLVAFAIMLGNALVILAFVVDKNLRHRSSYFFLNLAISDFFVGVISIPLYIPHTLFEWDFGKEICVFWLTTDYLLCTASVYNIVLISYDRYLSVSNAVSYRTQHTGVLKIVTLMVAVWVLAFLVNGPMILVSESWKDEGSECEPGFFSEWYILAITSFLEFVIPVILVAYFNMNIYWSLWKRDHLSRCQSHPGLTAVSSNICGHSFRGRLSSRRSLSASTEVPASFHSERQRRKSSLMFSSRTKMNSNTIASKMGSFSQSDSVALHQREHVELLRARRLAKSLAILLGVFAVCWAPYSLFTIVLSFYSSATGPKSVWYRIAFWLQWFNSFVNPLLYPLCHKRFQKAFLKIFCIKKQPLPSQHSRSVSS

SMILES: C[C@H]1CN(c2nc(N)nc3c2oc2ncc(Cl)cc23)CCN1
- Ki (Histamine H4 receptor [1]): 0.885 µM

SMILES: CN[C@H]1CCN(c2nc(N)nc3c2sc2ccc(Br)cc23)C1
- Ki (Histamine H4 receptor [1]): 0.065 µM

SMILES: CN[C@@H]1CCN(c2nc(N)nc3c2oc2c(Cl)cc(Cl)cc23)C1
- Ki (Histamine H4 receptor [1]): 0.008 µM

SMILES: CNC1CCN(c2nc(N)nc3c2oc2ccc(Cl)cc23)C1 (stereo not drawn)
- Ki (Histamine H4 receptor [1]): 0.0009 µM
- Kb (Histamine H4 receptor [2]): 0.01 µM
- solubility [3]: 0.054 µM (≈ 0.0172 µg/mL)
- remaining at […] [4]: 100%
- remaining at […] [5]: 100%

SMILES: Nc1nc(N2CC[C@@H](NCCO)C2)c2oc3ccc(Cl)cc3c2n1
- Ki (Histamine H4 receptor [1]): 0.046 µM

SMILES: Nc1nc(N2CCC[C@H](N)C2)c2oc3ccc(Cl)cc3c2n1
- Ki (Histamine H4 receptor [1]): 0.0057 µM

SMILES: Nc1nc(N2CC[C@@H](N)C2)c2oc3ncc(Cl)cc3c2n1
- Ki (Histamine H4 receptor [1]): 0.016 µM

SMILES: Nc1nc(N2CCNCC2)c2oc3ccc(Cl)c(Cl)c3c2n1
- Ki (Histamine H4 receptor [1]): 0.0077 µM

SMILES: CN[C@@H]1CCN(c2nc(N)nc3c2oc2ccc(Cl)cc23)C1
- Ki (Histamine H4 receptor [1]): 0.0004 µM

SMILES: Nc1nc(N2CCC[C@@H](N)C2)c2oc3ccc(Cl)cc3c2n1
- Ki (Histamine H4 receptor [1]): 0.0091 µM

SMILES: Nc1nc(N2CCNCC2)c2oc3cccc(F)c3c2n1
- Ki (Histamine H4 receptor [1]): 0.145 µM

SMILES: Nc1nc(N2C[C@@H]3C[C@H]2CN3)c2oc3ncc(Cl)cc3c2n1
- Ki (Histamine H4 receptor [1]): > 10 µM

SMILES: CN[C@H]1CCN(c2nc(N)nc3c2oc2ccc(Cl)cc23)C1
- Ki (Histamine H4 receptor [1]): 0.002 µM

SMILES: Cc1csc2c(N3CCCN(C)CC3)ncnc12
- Ki (Histamine H4 receptor [1]): > 10 µM

SMILES: Nc1nc(N2C[C@H]3C[C@@H]2CN3)c2oc3ccc(Cl)cc3c2n1
- Ki (Histamine H4 receptor [1]): 0.104 µM

SMILES: Nc1nc(N2CCNCC2)c2oc3cccc(Cl)c3c2n1
- Ki (Histamine H4 receptor [1]): 1.05 µM

SMILES: CN1CCCN(c2nc(N)nc3c2oc2ncc(Cl)cc23)CC1
- Ki (Histamine H4 receptor [1]): 0.037 µM

SMILES: Nc1nc(N2CCNCC2)c2oc3ncc(Cl)cc3c2n1
- Ki (Histamine H4 receptor [1]): 0.035 µM

SMILES: NC[C@H]1CCN(c2nc(N)nc3c2oc2ccc(Cl)cc23)C1
- Ki (Histamine H4 receptor [1]): 0.137 µM

SMILES: CN1CCN(c2ncnc3c2oc2ccc(Cl)cc23)CC1
- Ki (Histamine H4 receptor [1]): 0.0047 µM
- Kb (Histamine H4 receptor [2]): 0.00251 µM
- half-life [6]: < 0.0833 h
- half-life [7]: < 0.0833 h
- solubility [3]: 0.053 µM (≈ 0.016 µg/mL)

SMILES: CN1CCN(c2ncnc3c2sc2ccccc23)CC1
- Ki (Histamine H4 receptor [1]): 0.053 µM

SMILES: CN[C@H]1CCN(c2nc(N)nc3c2sc2ccc(Cl)cc23)C1
- Ki (Histamine H4 receptor [1]): 0.076 µM

SMILES: Nc1nc(N2C[C@H]3CCCN[C@H]3C2)c2oc3ccc(Cl)cc3c2n1
- Ki (Histamine H4 receptor [1]): 0.0047 µM

SMILES: Nc1nc(N2CCNCC2)c2oc3ccc(F)c(F)c3c2n1
- Ki (Histamine H4 receptor [1]): 0.156 µM

SMILES: CN[C@@H]1CCN(c2nc(N)nc3c2oc2ccc(Br)cc23)C1
- Ki (Histamine H4 receptor [1]): 0.0007 µM

SMILES: Nc1nc(N2CCNCC2)c2oc3c(Cl)cc(Cl)cc3c2n1
- Ki (Histamine H4 receptor [1]): 0.138 µM

SMILES: CN[C@@H]1CCN(c2nc(N)nc3c2sc2cc(C(F)(F)F)ccc23)C1
- Ki (Histamine H4 receptor [1]): 0.125 µM

SMILES: CN1CCN(c2nc(N)nc3c2sc2cc(Cl)ccc23)CC1
- Ki (Histamine H4 receptor [1]): 0.018 µM

SMILES: CN[C@@H]1CCN(c2nc(N)nc3c2oc2cccc(Cl)c23)C1
- Ki (Histamine H4 receptor [1]): 0.04 µM

SMILES: CNC1CCN(c2ncnc3c2sc2ccccc23)CC1
- Ki (Histamine H4 receptor [1]): > 10 µM

SMILES: CN1CCN(c2nc(N)nc3c2oc2ccc(F)c(F)c23)CC1
- Ki (Histamine H4 receptor [1]): 0.156 µM

SMILES: CN[C@@H]1CCN(c2nc(N)nc3c2oc2ncc(Cl)cc23)C1
- Ki (Histamine H4 receptor [1]): 0.0094 µM
- Kb (Histamine H4 receptor [2]): 0.00501 µM
- half-life [6]: > 3 h
- half-life [7]: > 1.02 h
- solubility [3]: > 0.4 µM
- IC50 [8]: > 10 µM
- INH [9]: > 3 µM
- solubility [10]: > 0.4 µM
- half-life [11]: > 3 h
- fraction unbound [12]: 0.43
- fraction unbound [13]: 0.18
- Papp A→B [14]: 230 nm/s
- Papp B→A [15]: 220 nm/s
- half-life [16]: 1.2 h
- half-life [17]: 9.7 h
- AUC [18]: 1.6 µM·h
- AUC [19]: 5.2 µM·h
- clearance [20]: 4.1 L/h/kg
- clearance [21]: 1.3 L/h/kg
- Vd [22]: 6.9 L/kg
- Vd [23]: 16.5 L/kg
- half-life [24]: 6.8 h
- half-life [25]: 10.5 h
- Cmax [26]: 1.2 µM
- Cmax [27]: 1.8 µM
- bioavailability [28]: 91%
- bioavailability [29]: 91%
- inhibition (Mus musculus): Active

SMILES: Nc1nc(N2CC3CCNC3C2)c2oc3ncc(Cl)cc3c2n1 (stereo not drawn)
- Ki (Histamine H4 receptor [1]): 0.139 µM

SMILES: CN1CCN(c2nc(N)nc3c2oc2ccc(Cl)cc23)CC1
- Ki (Histamine H4 receptor [1]): 0.0001 µM
- Kb (Histamine H4 receptor [2]): 0.002 µM
- remaining at […] [4]: 0.3%
- remaining at […] [5]: 84%

SMILES: Cc1csc2c(N3CCN(C)CC3)ncnc12
- Ki (Histamine H4 receptor [1]): > 0.205 µM

SMILES: CN(C)C1CCN(c2ncnc3c2sc2ccccc23)CC1
- Ki (Histamine H4 receptor [1]): > 10 µM

SMILES: Nc1nc(N2C[C@@H]3C[C@H]2CN3)c2oc3cccc(Cl)c3c2n1
- Ki (Histamine H4 receptor [1]): 0.443 µM

SMILES: CN[C@@H]1CCN(c2nc(N)nc3c2sc2ccc(Cl)cc23)C1
- Ki (Histamine H4 receptor [1]): 0.01 µM

SMILES: CN1CCN(c2nc(N)nc3c2oc2ncc(Cl)cc23)CC1
- Ki (Histamine H4 receptor [1]): 0.033 µM

SMILES: Nc1nc(N2C[C@@H]3CCCN[C@@H]3C2)c2oc3ccc(Cl)cc3c2n1
- Ki (Histamine H4 receptor [1]): 0.021 µM

SMILES: Nc1nc(N2C[C@@H]3C[C@H]2CN3)c2oc3ccc(Cl)cc3c2n1
- Ki (Histamine H4 receptor [1]): 0.026 µM

SMILES: CN1CCN(c2nc(N)nc3c2oc2ccc(Cl)c(Cl)c23)CC1
- Ki (Histamine H4 receptor [1]): 0.0077 µM

SMILES: CN1CCN(c2nc(N)nc3c4cc(Cl)ccc4[s+]([O-])c23)CC1 (stereo not drawn)
- Ki (Histamine H4 receptor [1]): 1.28 µM

SMILES: CN[C@@H]1CCN(c2nc(N)nc3c2oc2ccc(OC)cc23)C1
- Ki (Histamine H4 receptor [1]): 0.011 µM

SMILES: CN(C)C1CCN(c2ncnc3c2sc2ccccc23)C1 (stereo not drawn)
- Ki (Histamine H4 receptor [1]): > 10 µM

SMILES: CN[C@@H]1CCN(c2nc(N)nc3c2sc2ccc(F)cc23)C1
- Ki (Histamine H4 receptor [1]): 0.031 µM

SMILES: CN1CCN(CCCOc2ccc(-c3nc4cc(Cl)ccc4[nH]3)cc2)CC1
- Ki (Histamine H4 receptor [1]): 0.12 µM

SMILES: Nc1nc(N2CCC[C@H](N)C2)c2oc3ccc(C(F)(F)F)cc3c2n1
- Ki (Histamine H4 receptor [1]): 0.042 µM

SMILES: NCC1CN(c2nc(N)nc3c2oc2ncc(Cl)cc23)C1
- Ki (Histamine H4 receptor [1]): 0.376 µM

SMILES: Nc1nc(N2CC(N)C2)c2oc3ncc(Cl)cc3c2n1
- Ki (Histamine H4 receptor [1]): 0.613 µM

SMILES: Nc1nc(N2C[C@@H]3C[C@H]2CN3)c2oc3ccccc3c2n1
- Ki (Histamine H4 receptor [1]): 0.196 µM

SMILES: CN1CCN(c2ncnc3c2oc2ccccc23)CC1
- Ki (Histamine H4 receptor [1]): 0.056 µM
- half-life [6]: < 0.0833 h

SMILES: CN[C@@H]1CCN(c2nc(N)nc3c2oc2ccc(F)cc23)C1
- Ki (Histamine H4 receptor [1]): 0.002 µM

SMILES: CN1CCN(c2nc(N)nc3c2sc2ccc(Cl)cc23)CC1
- Ki (Histamine H4 receptor [1]): 0.0003 µM
